Key:
[1] = target: DGKzeta (Homo sapiens, UniProt Q13574); test: In vitro DGK inhibition assay (ADP-Glo, liposomes), DGKzeta; format: biochemical; design: hDGKzeta(1-928)-N-His; His (N); made in house; host or cells: Sf21 insect cells (baculovirus); settings: 2 nM DGK ζ, 50 μM ATP, 125 uM DLG in liposomes, 1 hour reaction
Procedure, shortened: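 DGKζ (2 nM) phosphorylated DLG presented in DLG/PS/PC liposomes (final DLG 125 μM) with 50 μM ATP for 1 hour. ADP formed was read by ADP-Glo luminescence. Compounds were tested as 11-point 1:3 dose responses in 2% final DMSO.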

[2] = test system: primary human T-cells; test: IL2 secretion measurements in CD3-stimulated T-cells; format: cell-based; settings: CD3 condition; for Emax / EC50: Homo sapiens, T-cell, 24 h; for Emax: read-out: Emax IL2 (% activation); for EC50: IL2 secretion after 24 hours, read-out: Tcell IL2 CD3 EC50
Procedure, shortened: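 Expanded primary human T-cells (100k/well) were stimulated on CD3 antibody-coated or PBS-coated plates with compounds in 5–6 point dose response from 20 or 10 μM top final (dilution factor 3.333, 0.2% DMSO final). IL2 in 24 h supernatants was measured by ProQuantum immunoassay or ELISA, normalized to DMSO (0%) and 20 μM reference compound A1 (100%) to fit EC50 and Emax.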

[3] = IL2 after 24 hours, 20 μM reference compound A1 = 100%

Chain of DGKzeta (Q13574 whole entry): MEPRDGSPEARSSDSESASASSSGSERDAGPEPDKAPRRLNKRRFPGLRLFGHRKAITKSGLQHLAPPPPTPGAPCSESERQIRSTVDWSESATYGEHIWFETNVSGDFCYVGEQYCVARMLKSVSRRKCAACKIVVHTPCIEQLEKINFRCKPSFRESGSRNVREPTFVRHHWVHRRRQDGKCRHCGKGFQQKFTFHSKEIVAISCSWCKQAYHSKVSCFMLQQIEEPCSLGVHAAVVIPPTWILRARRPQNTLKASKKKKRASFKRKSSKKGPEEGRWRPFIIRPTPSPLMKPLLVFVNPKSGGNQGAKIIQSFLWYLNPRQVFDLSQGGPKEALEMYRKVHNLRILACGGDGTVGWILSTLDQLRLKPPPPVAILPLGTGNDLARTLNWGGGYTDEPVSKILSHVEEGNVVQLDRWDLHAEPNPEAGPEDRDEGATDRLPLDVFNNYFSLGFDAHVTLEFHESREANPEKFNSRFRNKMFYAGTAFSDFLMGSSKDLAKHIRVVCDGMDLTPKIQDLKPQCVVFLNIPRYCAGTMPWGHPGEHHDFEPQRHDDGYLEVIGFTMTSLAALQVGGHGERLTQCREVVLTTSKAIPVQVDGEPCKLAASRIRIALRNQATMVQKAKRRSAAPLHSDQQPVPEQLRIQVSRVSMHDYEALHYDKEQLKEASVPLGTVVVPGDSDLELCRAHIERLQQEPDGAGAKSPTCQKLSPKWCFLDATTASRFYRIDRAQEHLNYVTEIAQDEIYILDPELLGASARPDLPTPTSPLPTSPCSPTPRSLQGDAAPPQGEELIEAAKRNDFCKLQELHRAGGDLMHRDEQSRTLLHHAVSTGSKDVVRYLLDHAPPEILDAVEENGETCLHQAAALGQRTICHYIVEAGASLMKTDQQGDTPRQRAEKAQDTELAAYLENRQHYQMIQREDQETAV

Row | IC50 [1] | EC50 [2] | SMILES | Emax [2, 3] | Emax IL2 (% activation) [2, 3]
1 | 989 nM | 1010 nM | CS(=O)(=O)C1(c2nnc(-c3cc4c(cc3F)S(=O)(=O)C[C@H](N)C(=O)N4Cc3ccc(Cl)cc3)o2)CC1 [Example 1, (3R)-3-amino-5-[(4-chlorophenyl)methyl]-8-fluoro-7-[5-(1-methylsulfonylcyclopropyl)-1,3,4-oxadiazol-2-yl]-1,1-dioxo-2,3-dihydro-1λ6,5-benzothiazepin-4-one] | 55% | –
2 | 413 nM | 3130 nM | COc1cccc(Oc2ccc(CN3C(=O)[C@@H](N)CS(=O)(=O)c4ccc(-c5nnc(C(C)(C)S(C)(=O)=O)o5)cc43)cc2)c1 [Example 42] | 125% | –
3 | 8950 nM | 9140 nM | CC(C)(c1nnc(-c2ccc3c(c2)N(Cc2ccc(-c4ccc(C(F)(F)F)cc4)nc2)C(=O)[C@@H](N)CS3(=O)=O)o1)S(C)(=O)=O [Example 57, (3R)-3-amino-7-[5-(1-methyl-1-methylsulfonyl-ethyl)-1,3,4-oxadiazol-2-yl]-1,1-dioxo-5-[[6-[4-(trifluoromethyl)phenyl]-3-pyridyl]methyl]-2,3-dihydro-1λ6,5-benzothiazepin-4-one] | 53% | –
4 | 1280 nM | 424 nM | CC(C)(c1nnc(-c2ccc3c(c2)N(Cc2ccc(Oc4cccc(C(F)(F)F)c4)cc2)C(=O)[C@@H](N)CS3(=O)=O)o1)S(C)(=O)=O [Example 38] | 155% | –
5 | 826 nM | 497 nM | CC(C)(c1nnc(-c2ccc3c(c2)N(Cc2ccc(-c4ccc(OC(F)(F)F)cn4)cc2)C(=O)[C@@H](N)CS3(=O)=O)o1)S(C)(=O)=O [Example 69, (3R)-3-amino-1,1-diketo-7-[5-(1-mesyl-1-methyl-ethyl)-1,3,4-oxadiazol-2-yl]-5-[4-[5-(trifluoromethoxy)-2-pyridyl]benzyl]-2,3-dihydro-1λ6,5-benzothiazepin-4-one] | 97% | –
6 | 1920 nM | 2490 nM | CC(C)(c1nnc(-c2ccc3c(c2)N(Cc2ccc(OC(F)(F)F)cc2)C(=O)[C@@H](N)CS3(=O)=O)o1)S(C)(=O)=O [Example 64, (3R)-3-amino-7-[5-(1-methyl-1-methylsulfonyl-ethyl)-1,3,4-oxadiazol-2-yl]-1,1-dioxo-5-[[4-(trifluoromethoxy)phenyl]methyl]-2,3-dihydro-126,5-benzothiazepin-4-one] | 55% | –
7 | 8370 nM | 3160 nM | CN(C)S(=O)(=O)C(C)(C)c1nnc(-c2ccc3c(c2)N(Cc2ccc(-c4ccc(C(F)(F)F)cc4)cc2)C(=O)[C@@H](N)CS3(=O)=O)o1 [Example 65, 2-[5-[(3R)-3-amino-1,1,4-trioxo-5-[[4-[4-(trifluoromethyl)phenyl]phenyl]methyl]-2,3-dihydro-1λ6,5-benzothiazepin-7-yl]-1,3,4-oxadiazol-2-yl]-N,N-dimethyl-propane-2-sulfonamide] | 85% | –
8 | 893 nM | 1100 nM | CC(C)(c1nnc(-c2ccc3c(c2)N(Cc2ccc(Oc4cccc(Cl)c4Cl)cc2)C(=O)[C@@H](N)CS3(=O)=O)o1)S(C)(=O)=O [Example 32, (3R)-3-amino-5-[[4-(2,3-dichlorophenoxy)phenyl]methyl]-7-[5-(1-methyl-1-methylsulfonyl-ethyl)-1,3,4-oxadiazol-2-yl]-1,1-dioxo-2,3-dihydro-1λ6,5-benzothiazepin-4-one] | 82% | –
9 | 371 nM | 897 nM | CC(C)(c1nc(-c2cc3c(cc2F)[S+]([O-])C[C@H](N)C(=O)N3Cc2ccc(Oc3ccccc3)cc2)no1)S(C)(=O)=O (stereo partly drawn) [Example 51, (3R)-3-amino-8-fluoro-7-[5-(1-methyl-1-methylsulfonyl-ethyl)-1,2,4-oxadiazol-3-yl]-1-oxo-5-[(4-phenoxyphenyl)methyl]-2,3-dihydro-1λ4,5-benzothiazepin-4-one] | – | 101%
10 | 49700 nM | 1760 nM | CC(C)(c1nnc(-c2ccc3c(c2)N(Cc2ccc(-c4ccc(C(F)(F)F)cc4)cc2)C(=O)[C@@H](N)CS3(=O)=O)o1)S(=O)(=O)N1CCCC1 [Example 67, (3R)-3-amino-7-[5-(1-methyl-1-pyrrolidin-1-ylsulfonyl-ethyl)-1,3,4-oxadiazol-2-yl]-1,1-dioxo-5-[[4-[4-(trifluoromethyl)phenyl]phenyl]methyl]-2,3-dihydro-1λ6,5-benzothiazepin-4-one] | 71% | –
11 | 414 nM | 637 nM | CC(C)(c1nnc(-c2cc3c(cc2F)S(=O)(=O)C[C@H](N)C(=O)N3Cc2ccc(-c3ccc(C(F)(F)F)nc3)cc2)o1)S(C)(=O)=O [Example 36] | 61% | –
12 | 978 nM | 1320 nM | CC(C)(c1nnc(-c2ccc3c(c2)N(Cc2ccc(OC(F)(F)C(F)F)cc2)C(=O)[C@@H](N)CS3(=O)=O)o1)S(C)(=O)=O [Example 3, (3R)-3-amino-7-[5-(1-methyl-1-methylsulfonyl-ethyl)-1,3,4-oxadiazol-2-yl]-1,1-dioxo-5-[[4-(1,1,2,2-tetrafluoroethoxy)phenyl]methyl]-2,3-dihydro-126,5-benzothiazepin-4-one] | 102% | –
13 | 2290 nM | 1460 nM | COc1cc(Cl)cc(Oc2ccc(CN3C(=O)[C@@H](N)CS(=O)(=O)c4ccc(-c5nnc(C(C)(C)S(C)(=O)=O)o5)cc43)cc2)c1 [Example 41, (3R)-3-amino-5-[[4-(3-chloro-5-methoxy-phenoxy)phenyl]methyl]-7-[5-(1-methyl-1-methylsulfonyl-ethyl)-1,3,4-oxadiazol-2-yl]-1,1-dioxo-2,3-dihydro-1λ6,5-benzothiazepin-4-one] | 115% | –
14 | 370 nM | 545 nM | CC(C)(c1nnc(-c2cc3c(cc2F)S(=O)(=O)C[C@H](N)C(=O)N3Cc2ccc(OC(F)(F)C(F)F)cc2)o1)S(C)(=O)=O [Example 26, (3R)-3-amino-8-fluoro-7-[5-(1-methyl-1-methylsulfonyl-ethyl)-1,3,4-oxadiazol-2-yl]-1,1-dioxo-5-[[4-(1,1,2,2-tetrafluoroethoxy)phenyl]methyl]-2,3-dihydro-1λ6,5-benzothiazepin-4-one] | 159% | –
15 | 1460 nM | > 10000 nM | COc1ccc(-c2ccc(CN3C(=O)[C@@H](N)CS(=O)(=O)c4ccc(-c5nnc(C(C)(C)S(C)(=O)=O)o5)cc43)cc2)c(C)c1 [Example 49, (3R)-3-amino-5-[[4-(4-methoxy-2-methyl-phenyl)phenyl]methyl]-7-[5-(1-methyl-1-methylsulfonyl-ethyl)-1,3,4-oxadiazol-2-yl]-1,1-dioxo-2,3-dihydro-1λ6,5-benzothiazepin-4-one] | 34% | –
16 | 377 nM | 216 nM | COc1ccc(-c2ccc(CN3C(=O)[C@@H](N)CS(=O)(=O)c4cc(F)c(-c5noc(C(C)(C)S(C)(=O)=O)n5)cc43)cc2)cc1 [Example 50, (3R)-3-amino-8-fluoro-5-[[4-(4-methoxyphenyl)phenyl]methyl]-7-[5-(1-methyl-1-methylsulfonyl-ethyl)-1,2,4-oxadiazol-3-yl]-1,1-dioxo-2,3-dihydro-1λ6,5-benzothiazepin-4-one] | 99% | –
17 | 269 nM | 3350 nM | COCC(C)(C)Oc1ccc(CN2C(=O)[C@@H](N)CS(=O)(=O)c3cc(F)c(-c4noc(C(C)(C)S(C)(=O)=O)n4)cc32)cc1 [Example 62, (3R)-3-amino-8-fluoro-5-[[4-(2-methoxy-1,1-dimethyl-ethoxy)phenyl]methyl]-7-[5-(1-methyl-1-methylsulfonyl-ethyl)-1,2,4-oxadiazol-3-yl]-1,1-dioxo-2,3-dihydro-benzothiazepin-4-one] | 169% | –
18 | 3110 nM | 3420 nM | CC(C)(c1nnc(-c2ccc3c(c2)N(Cc2ccc(-c4noc(C(F)(F)F)n4)cc2)C(=O)[C@@H](N)CS3(=O)=O)o1)S(C)(=O)=O [Example 17, (3R)-3-amino-7-[5-(1-methyl-1-methylsulfonyl-ethyl)-1,3,4-oxadiazol-2-yl]-1,1-dioxo-5-[[4-[5-(trifluoromethyl)-1,2,4-oxadiazol-3-yl]phenyl]methyl]-2,3-dihydro-1λ6,5-benzothiazepin-4-one] | 153% | –
19 | 893 nM | 801 nM | CC(C)(c1nnc(-c2ccc3c(c2)N(Cc2ccc(Oc4cccc(OC(F)(F)F)c4)cc2)C(=O)[C@@H](N)CS3(=O)=O)o1)S(C)(=O)=O [Example 40, (3R)-3-amino-7-[5-(1-methyl-1-methylsulfonyl-ethyl)-1,3,4-oxadiazol-2-yl]-1,1-dioxo-5-[[4-[3-(trifluoromethoxy)phenoxy]phenyl]methyl]-2,3-dihydro-126,5-benzothiazepin-4-one] | 196% | –
20 | 701 nM | 2110 nM | CC(C)(c1nnc(-c2ccc3c(c2)N(Cc2ccc(Oc4ccccc4)cc2)C(=O)[C@@H](N)CS3(=O)=O)o1)S(C)(=O)=O [Example 5, (3R)-3-amino-7-[5-(1-methyl-1-methylsulfonyl-ethyl)-1,3,4-oxadiazol-2-yl]-1,1-dioxo-5-[(4-phenoxyphenyl)methyl]-2,3-dihydro-1λ6,5-benzothiazepin-4-one] | 118% | –

— patent publication US20260035364A1, “BICYCLIC TETRAHYDROTHIAZEPINE DERIVATIVES” (Hoffmann-La Roche Inc., priority 2022, published 2026)
